Source: ChEMBL document CHEMBL4049445
Calls of active or inactive are those of the source. The calls are words filed in the database; no cut-off is given here.

test system: Influenza A virus; assay: Antiviral activity against Influenza A virus A/PR/8/34 expressing amantadine-resistant M2 proton channel S31N mutant infected in MDCK cells; format: functional, cell-based; details: A/Puerto Rico/8/1934(H1N1)

Row | Structure (SMILES) | Activity
1 | N=C(N)N1CCC(C23CC4CC(CC(C4)C2)C3)CC1 | inactive
2 | N=C(N)N1CCC(CC2C3CC4CC(C3)CC2C4)CC1 (configuration not stated) | inactive
3 | N=C(N)N1CCC(C=C2C3CC4CC(C3)CC2C4)CC1 | inactive
4 | CCN1CCC(C2C3CC4CC(C3)CC2C4)CC1 (configuration not stated) | inactive
5 | C(=C1C2CC3CC(C2)CC1C3)C1CCNCC1 | inactive
6 | OC1(CC2CCNCC2)C2CC3CC(C2)CC1C3 (configuration not stated) | inactive
7 | OC1(C2CCNCC2)C2CC3CC(C2)CC1C3 (configuration not stated) | inactive
8 | C1CC(CC2C3CC4CC(C3)CC2C4)CCN1 (configuration not stated) | inactive
9 | CN1CCC(CC2C3CC4CC(C3)CC2C4)CC1 (configuration not stated) | inactive
10 | C1CCC(C23CC4CC(CC(C4)C2)C3)NC1 (configuration not stated) | inactive
11 | C1CC(C2C3CC4CC(C3)CC2C4)CCN1 (configuration not stated) | inactive
12 | C1CC(C23CC4CC(CC(C4)C2)C3)CCN1 | inactive
